The target of data set [1] is partially purified pig heart adenosine kinase or recombinant human adenosine kinase. The experiment in a line: AK inhibition. As to conditions: 0.5 μM [U-14C] adenosine, pH 7.0, 37° C., 20 minutes. The format is biochemical. The method, then:
Adenosine kinase activity was measured essentially as described by Yamada et al. Biochim. Biophys. Acta 660, 36-43 (1988) with a few minor modifications. Assay mixtures contained 50 mM TRIS-maleate buffer, pH 7.0, 0.1% BSA, 1 mM ATP 1 mM MgCl2, 0.5 μM [U-^14 C] adenosine (400-600 mCi/mmol) and varying duplicate concentrations of inhibitor. […] The amount of ^14 C-AMP was quantified by scintillation counting.

The subject of a further data set is Rats (carrageenan paw). In words: Anti-inflammatory activity, carrageenan paw swelling. The format is in vivo. As to conditions: rat, 10 mg/kg, swelling after 3 hours; for Carrageenan Paw (% inhibition) po: oral gavage. The method, then: Carrageenan (Type λ) was suspended in sterile PBS at 1% (w/v), autoclaved for 30 minutes, and stored at room temperature. Rats were pretreated with vehicle or AK inhibitor (10 mg/kg) by oral gavage or i.p. administration and the volume of the left hind paw was measured using a water displacement plethysmometer (Stoelting Co., Wood Dale, Ill.). One hour after oral treatment or 30 minutes after i.p. treatment, the rats were briefly anesthetized, and 0.1 ml of the carrageenan solution was injected subcutaneously into the planar surface of the left hind paw. The ensuing paw swelling was measured by plethysmometry after 3 hours. The paw volume in millileters was […]. Data are presented in Table 2 as the percent inhibition of paw swelling in AK inhibitor treated animals, compared to vehicle treated control animals.
A general note: In the carrageenan paw model, swelling and tenderness develop within hours.

The next data set deals with Female SA rats. In words: Liver toxicity assay. The format is in vivo. As to conditions: rat, i.v. infusion, total dose 75 μmole/kg, serum. The method, then:
Female SA rats (150-200 g) are anesthetized with halothane and cannulated via the internal jugular vein. The animals are allowed to recover for 3 days. At this time, 37.5 μmole/kg of an AK inhibitor is dissolved in 50% PEG400 and infused through the jugular catheter over 20 minutes. Twelve hours later, an additional 37.5 μmole/kg is infused over 20 minutes (total dose =75 μmole/kg). […] Liver enzymes (serum glutamic-oxaloacetic transaminase (SGOT), serum glutamic-pyruvic transaminase (SGPT), alkaline phosphatase) and total bilirubin in the serum samples are determined by a commercial laboratory.

pIC50: −log10 of the molar value. Structures can show the parent of a compound that is named as a salt.

One may read the pIC50 as the IC50 on a negative log10 scale, so that one unit is a factor of ten. Turning to `C[C@H]1O[C@@H](n2cc(-c3ccccc3)c3c(Nc4ccc(CCNC(=O)c5cccnc5)cc4)ncnc32)[C@H](O)[C@@H]1O` [Compound 268, 4-N-[2-(Nicotinylaminoethyl)phenyl]amino-5-phenyl-7-(5-deoxy-1-β-D-ribofuranosyl)pyrrolo(2,3-d)pyrimidine], the pIC50 in data set [1] is 9.00. In the data set with Rats (carrageenan paw), the “Carrageenan Paw (% inhibition) ip” value worked out at 0.0% and the “Carrageenan Paw (% inhibition) po” value was 7.1%.

Take `C[C@H]1O[C@@H](n2cc(-c3ccccc3)c3c(Nc4ccc(C(=O)N5CCNCC5)cc4)ncnc32)[C@H](O)[C@@H]1O` [Compound 210, 4-N-[4-(4-piperazinocarbonylphenyl)]amino-5-phenyl-7-(5-deoxy-1-β-D-ribofuranosyl)pyrrolo[2,3-d]pyrimidine]: in data set [1], the pIC50 is 8.70. For the same compound, in the data set on Rats (carrageenan paw), the “Carrageenan Paw (% inhibition) ip” value turned out to be 23.8% and the “Carrageenan Paw (% inhibition) po” value is on record as 0.0%.

In the case of `NC[C@H]1O[C@@H](n2nc(Br)c3c(N)ncnc32)[C@H](O)[C@@H]1O` [REF.B, 4amino-1-(5-amino-5-deoxy-1-D-ribofuranosyl)-3-bromopyrazolo[3,4d]pyrimidne HCL, reference compound], in the data set on Female SA rats, the SGOT was 100 IU/L, the SGPT was found to be 41 IU/L and the “Total Bilirubin” value was 0.30 mg/dL.

As for `C[C@H]1O[C@@H](n2cc(-c3ccccc3)c3c(Nc4ccc(CCO)cc4)ncnc32)[C@H](O)[C@@H]1O` [Compound 2, 4-N-(4-(2-Hydroxyethyl)phenyl)amino-5-phenyl-7-(5-deoxy-β-D-ribofuranosyl)pyrrolo[2,3-d]pyrimidine], the pIC50 in data set [1] was 9.00. Also, in the data set on Rats (carrageenan paw), the “Carrageenan Paw (% inhibition) ip” value is 13.2% and the “Carrageenan Paw (% inhibition) po” value amounted to 1.9%.

For `CC(=O)Nc1ccc(Nc2ncnc3c2c(I)cn3[C@@H]2O[C@H](C)[C@H]3OC(C)(C)O[C@H]32)cc1` [Compound 29, 4-N-[4-(N-acetylamino)phenyl]amino-5-iodo-7-(1-β-D-5-deoxy-2,3-O-isopropylideneribose)pyrrolo[2,3-d]pyrimidine], the pIC50 in data set [1] is 9.30. Moreover, in the data set with Rats (carrageenan paw), the “Carrageenan Paw (% inhibition) ip” value worked out at 26.1% and the “Carrageenan Paw (% inhibition) po” value is recorded as 14.9%.

For the compound `C[C@H]1O[C@@H](n2cc(-c3ccccc3)c3c(Nc4ccc(CCN(C)C)cc4)ncnc32)[C@H](O)[C@@H]1O` [Compound 7, 4-N-[4-(2-N,N-dimethylaminoethyl)phenyl]amino-5-phenyl-7-(5-deoxy-β-D-ribofuranosyl)pyrrolo[2,3-d]pyrimidine], the negative logarithm of the IC50 (pIC50) in data set [1] was 9.00. In the data set on Rats (carrageenan paw), the “Carrageenan Paw (% inhibition) ip” value is given as 19.0% and the “Carrageenan Paw (% inhibition) po” value was 7.7%.

Take `C[C@H]1O[C@@H](n2cc(-c3ccccc3)c3c(Nc4ccc(OCC(=O)N5CCNCC5)cc4)ncnc32)[C@H](O)[C@@H]1O` [Compound 196, 4-N-[4-(4-piperazinocarbonylmethyloxy)phenyl]amino-5-phenyl-7-(5-deoxy-1-β-D-ribofuranosyl)pyrrolo(2,3-d)pyrimidine]: the pIC50 in data set [1] is 9.46. In addition, in the data set on Rats (carrageenan paw), the “Carrageenan Paw (% inhibition) ip” value came to 11.8% and the “Carrageenan Paw (% inhibition) po” value turned out to be 0.0%.

Take `C[C@H]1O[C@@H](n2cc(-c3ccccc3)c3c(Nc4ccc(C(N)=NO)cc4)ncnc32)[C@H](O)[C@@H]1O` [Compound 37, 4-N-(4-amidoximephenyl)amino-5-phenyl-7-(5-deoxy-1-β-D-ribofuranosylpyrrolo[2,3-d]pyrimidine hydrochloride]: the pIC50 in data set [1] is 8.30. Further, in the data set with Rats (carrageenan paw), the “Carrageenan Paw (% inhibition) ip” value is 17.9% and the “Carrageenan Paw (% inhibition) po” value is 23.3%.

Take `C[C@H]1O[C@@H](n2cc(-c3cccc(NC(=N)N)c3)c3c(Nc4ccc(F)cc4)ncnc32)[C@H](O)[C@@H]1O` [Compound 206, 4-N-(4-fluorophenyl)amino-5-(3-guanidinophenyl)-7-(5-deoxy-1-β-D-ribofuranosyl)pyrrolo[2,3-d]pyrimidine]: the negative-log IC50 (pIC50) in data set [1] was 8.15. Besides, in the data set on Rats (carrageenan paw), the “Carrageenan Paw (% inhibition) ip” value is on record as 10.1% and the “Carrageenan Paw (% inhibition) po” value was 23.5%.

For the compound `C[C@H]1O[C@@H](n2cc(-c3ccc(/C=C/C(=O)O)cc3)c3c(Nc4ccc(F)cc4)ncnc32)[C@H](O)[C@@H]1O` [Compound 202, 4-N-(4-fluorophenyl)amino-5-[4-(2-carboxy-E-ethenyl)phenyl]-7-(5-deoxy-1-β-D-ribofuranosyl)pyrrolo[2,3-d]pyrimidine], the pIC50 in data set [1] is 7.70. In addition, in the data set on Rats (carrageenan paw), the “Carrageenan Paw (% inhibition) ip” value is on record as 3.4% and the “Carrageenan Paw (% inhibition) po” value was 3.9%.

For `C[C@H]1O[C@@H](n2cc(-c3ccccc3)c3c(Nc4ccc(CC(=O)N5CCNCC5)cc4)ncnc32)[C@H](O)[C@@H]1O` [Compound 189], in data set [1], the pIC50 is 9.00. Further, in the data set on Rats (carrageenan paw), the “Carrageenan Paw (% inhibition) ip” value came to 30.1% and the “Carrageenan Paw (% inhibition) po” value amounted to 12.1%.

On to `NCCc1ccc(Nc2ncnc3c2c(-c2ccccc2)cn3[C@@H]2O[C@@H](CO)[C@@H](O)[C@H]2O)cc1` [Compound 16, 4-N-(4-(2-aminoethyl)phenyl)amino-5-phenyl-7-α-L-lyxofuranosylpyrrolo[2,3-d]pyrimidine], for which the pIC50 in data set [1] was 9.00. For the same compound, in the data set with Rats (carrageenan paw), the “Carrageenan Paw (% inhibition) ip” value was determined as 31.6% and the “Carrageenan Paw (% inhibition) po” value came out at 12.4%.

Regarding `C[C@H]1O[C@@H](n2cc(-c3ccccc3)c3c(Nc4ccc(C(=O)O)cc4)ncnc32)[C@H](O)[C@@H]1O` [Compound 209, 4-N-(4carboxyphenyl)amino-5-phenyl-7-(5-deoxy-1-β-D-ribofuranosyl)pyrrolo[2,3-d]pyrimidine], in data set [1], the pIC50 is 7.10. Moreover, in the data set with Rats (carrageenan paw), the “Carrageenan Paw (% inhibition) ip” value is reported as 22.0% and the “Carrageenan Paw (% inhibition) po” value came out at 0.0%.

In the case of `C[C@H]1O[C@@H](n2cc(-c3ccccc3)c3c(Nc4ccc(C(=O)NN5CCCCC5)cc4)ncnc32)[C@H](O)[C@@H]1O` [Compound 212], in data set [1], the negative logarithm of the IC50 (pIC50) was 8.70. Also, in the data set with Rats (carrageenan paw), the “Carrageenan Paw (% inhibition) ip” value is reported as 1.8% and the “Carrageenan Paw (% inhibition) po” value is 0.0%.

Turning to `C[C@H]1O[C@@H](n2cc(-c3ccccc3)c3c(Nc4ccc(CCNC(=N)N)cc4)ncnc32)[C@H](O)[C@@H]1O` [Compound 267, 4-N-[4-(2-Guanidinoethyl)phenyl]amino-5-phenyl-7-(5-deoxy-1-β-D-ribofuranosyl)pyrrolo[2,3-d]pyrimidine hydrochloride], the negative-log IC50 (pIC50) in data set [1] is 9.00. Moreover, in the data set with Rats (carrageenan paw), the “Carrageenan Paw (% inhibition) ip” value came out at 52.3% and the “Carrageenan Paw (% inhibition) po” value came to 15.4%.

As for `C[C@H]1O[C@@H](n2cc(-c3ccccc3)c3c(Nc4ccc(CCS(=O)(=O)O)cc4)ncnc32)[C@H](O)[C@@H]1O` [Compound 265, 4-N[4-(2-Sulfonyloxyethyl)phenylamino]-5-phenyl-7-(5-deoxy-1-β-D-ribofuranosyl)pyrrolo[2,3-d]pyrimidine], the pIC50 in data set [1] is 8.70. For the same compound, in the data set on Rats (carrageenan paw), the “Carrageenan Paw (% inhibition) ip” value was determined as 10.0% and the “Carrageenan Paw (% inhibition) po” value turned out to be 6.2%.

For `C[C@H]1O[C@@H](n2cc(-c3cccnc3)c3c(NCc4ccccn4)ncnc32)[C@H](O)[C@@H]1O` [Compound 48, 4-N-(2-pyridylmethyl)amino-5-(3-pyridino)-7-(5-deoxy-1-β-D-ribofuranosyl)pyrrolo[2,3-d]pyrimidine], the negative logarithm of the IC50 (pIC50) in data set [1] was 6.52.

Consider `C[C@H]1O[C@@H](n2cc(-c3ccccc3)c3c(Nc4ccc(CC(=O)O)cc4)ncnc32)[C@H](O)[C@@H]1O` [Compound 186, 4-N-(4-Carboxymethylphenyl)amino-5-phenyl-7-(5-deoxy-1-β-D-ribofuranosyl)pyrrolo[2,3-d]pyrimidine], for which the pIC50 in data set [1] was 7.10.

Turning to `C[C@H]1O[C@@H](n2cc(-c3ccccc3)c3c(Nc4ccc(NC(=N)N)cc4)ncnc32)[C@H](O)[C@@H]1O` [Compound 269, 4-N-(4-Guanidinophenyl)amino-5-phenyl-7-(5-deoxy-1-β-D-ribofuranosyl)pyrrolo[2,3-d]pyrimidine], in data set [1], the pIC50 was 8.22.

As to `C[C@H]1O[C@@H](n2cc(-c3cccnc3)c3c(Nc4ccccc4)ncnc32)[C@H](O)[C@@H]1O` [Compound 47, 4-N-Phenylamino-5-(3-pyridino)-7-(5-deoxy-1-β-D-ribofuranosyl) pyrrolo[2,3-d]pyrimidine], in data set [1], the pIC50 is 7.26. Further, in the data set on Rats (carrageenan paw), the “Carrageenan Paw (% inhibition) ip” value was determined as 0.0% and the “Carrageenan Paw (% inhibition) po” value was found to be 9.8%.

In the case of `C[C@H]1O[C@@H](n2cc(-c3ccc(CN4CCNCC4)cc3)c3c(Nc4ccc(F)cc4)ncnc32)[C@H](O)[C@@H]1O` [Compound 197, 4-N-(4-fluorophenyl)amino-5-[4-(N-piperazinomethyl)phenyl]-7-(5-deoxy-β-D-ribofuranosyl)pyrrolo[2,3-d]pyrimidine], in data set [1], the pIC50 was 8.05.
